This is an account of results in US20230226135A9, “ACETYLCHOLINE MODULATION OF IMMUNE FUNCTION” (BCell Solutions, Inc., priority 2019, published 2023).

“Also recorded” adds a separate entry of the source.

Data set [1] has as its system peripheral pro-inflammatory cells. Description: TBI (fluid percussion injury), peripheral pro-inflammatory cells. In kind it is in vivo. Conditions: TBI / FPI. The text has this:
FIG. 17. CAP reduces peripheral pro-inflammatory cells. TBI is traumatic brain injury. FPI is fluid percussion injury.

In another data set the test system is CLIP+ B cells. Description: CFA-induced arthritis model, CAP depletion of B cells with or without α7nAChR antagonist. It counts as in vivo, mice. As for the experimental part:
FIGS. 11A-11B. […] In this study, CAP was administered at 3 days after CFA, then once daily every 3 days, until day 10 after CFA.
The next series of experiments are focused on the effects of CAP on splenic immune cells. […] As part of this experiment, the mice were co-treated with CAP and the alpha-7 nicotinic acetylcholine receptor (α7nAChR) antagonist, methyllycaconitine (MCA).

The next data set concerns IL17a. The data set is described as follows: Preeclampsia model in pregnant mice (TLR agonists), IL17. In kind it is in vivo. Conditions: PolyI:C or R837 induced; CAP i.p. (2 mg/kg, gestational day 13 elsewhere in the source). As for the experimental part: FIG. 9. CAP reduces IL-17 production in a model of preeclampsia. Pregnant mice were treated with the TLR3 or […] agonists to induce symptoms of preeclampsia, followed by CAP treatment.
(§1) In a separate study, preeclampsia was induced in pregnant mice by injection of either the toll-like receptor 3 (TLR3) agonist, PolyI:C, or with the toll-like receptor 8 ([…]) agonist R837. […] It is pertinent to note that this power issue has been corrected.
(§2) Preeclampsia, a disease suffered by pregnant woman that is characterized by high blood pressure and signs of damage to other organ systems, most often the liver and kidneys, is often accompanied by inflammation. […] Preeclampsia is also associated with an elevated TH17 response, including elevated IL17a, and elevated IL17a is associated with human and experimental hypertension and poor perinatal outcomes. […] Therefore, the anti-inflammatory effects of CAP were associated with improved outcomes in this model.

Data set [2] can be described thus: Preeclampsia model in pregnant mice (TLR agonists), blood pressure. It counts as in vivo. Conditions: TLR agonist induced, CAP i.p. 2 mg/kg. As for the experimental part: FIG. 15. CAP reverses inflammatory characteristics in a preeclampsia model. Pregnant mice were treated with TLR agonists (R837, Clo97, and PIC) to induce symptoms of preeclampsia followed by CAP treatment (shown as TPP).
as §2

A further data set concerns IL1b, IL6 and IL17. The data set is described as follows: TBI-induced changes in brain cytokines. Conditions: CAP i.p. 30 minutes after TBI, brains harvested 24 hours after TBI; not significant, under-powered. In kind it is in vivo, mice. As for the experimental part:
FIG. 10. TBI-induced changes in brain cytokines. TBI induced increase in brain IL1b, IL6 and IL17 are reversed by CAP. Cap was administered i.p. 30 minutes after TBI and brains were harvested 24 hours after TBI.
as §1

Another data set relates to CD8+ T cells. Description: CAP-induced expansion of CD8+ T cells with or without α7nAChR antagonist. It counts as in vivo. To be noted: CAP treatment.
Data set [3] is described as follows: Dosing formulation storage and stability. In kind it is physicochemical. To be noted: 5 mg/mL DMSO stock. As for the experimental part: Test Article Formulation Instructions & Calculations: Peptide dosing solution (0.2 mg/mL) was made fresh daily within 1 hour of use by diluting 0.09 mL of 5 mg/mL DMSO stock into 2.11 mL sterile saline. DMSO stock was kept at 4 C, then refrozen (to avoid repeated freeze-thaw cycles). Still, stock was relatively “solid” even at 4 C.
MLA antagonist dosing solution (0.6 mg/mL) was made on Day 2 by diluting the entire 5 mg in the sealed vial with 8.3 mL of sterile saline and aliquoting out ˜1.1 mL in each of seven 2 mL cryovials and freezing at −20 C. Four vials were used in the experiment, each thawed within 1 hour of use. Three vials remain frozen.
Dosing Formulations and Vehicle Storage & Stability: Saline vehicle is stable at 4 C for months. Peptide dosing solutions were made up and used fresh daily. […] MLA frozen “stock” solutions were stable for up to 1 month.

A further data set concerns IL1β and IL6. Description: Collagen-induced arthritis model (collagen emulsion in CFA), pro-inflammatory cytokines. It counts as in vivo, mice. As for the experimental part: FIG. 8. Collagen-induced arthritis model. Animals were injected with a collagen emulsion in Complete Freunds Adjuvant (CFA) and treated with either CAP during early disease development or once arthritic disease was established.
Central to the overarching hypothesis, is the anti-inflammatory effects of CAP.
Rheumatoid arthritis (RA), an autoimmune condition caused by the immune system attacking healthy body tissue by directing antibodies to the lining of the joints, where they attack the tissue surrounding the joint. In an established mouse model of RA, induced by injection of collagen and Complete Freunds Adjuvant (CFA), there is an increase in the pro-inflammatory cytokines, IL1B and IL6 (FIG. 17). […] Therefore, different doses of CAP appear to be effective in the developing versus the established stages of the disease. These changes were accompanied by a reduction in peripheral B cells. These findings are important because IL6 and IL1B are differentially elevated depending on the severity of various infections, such as SARS-CoV-2. Thus, testing different doses of CAP at different stages of infection will be helpful to optimizing translational therapy.

With FRIMAVLAS [CAP, α7nAChR agonist], in data set [1], the peripheral pro-inflammatory cells result is on record as “reduces”. Further, the “CFA-induced B cell expansion” value with CLIP+ B cells (3x CAP treatment) is given as “reversed”. The “number of CLIP+ B cells (pro-inflammatory B cell populations)” value in the data set with CLIP+ B cells (CAP from 3 days after CFA, once every 3 days until day 10) was “significantly reduced; also recorded: selectively depletes”. Besides, in the data set with IL17a, the “elevated IL17 (IL17a)” value is “significantly reduced”. Moreover, the elevated blood pressure result in data set [2] is reported as “significantly reduced”. Besides, the “brain IL1b, IL6 and IL17” value in the data set on IL1b, IL6 and IL17 is “trend toward a reduction; also recorded: reversed”. Moreover, in the data set with CD8+ T cells, the “expansion of CD8+ T cells” value is recorded as “induce the expansion; also recorded: induces expansion”. For the same sequence, the “stability of DMSO stock” value in data set [3] is recorded as “stable for a few months”. The “reducing IL1β and IL6” value with IL1β and IL6 (0.2 mg/kg i.p., developing stage) was “most efficacious”; in the data set with IL1β and IL6 (20 mg/kg i.p., established stage) it was “most efficacious”. The “peripheral B cells” value with IL1β and IL6 (RA model, CAP i.p.) is “reduction”. The cytokines entry in the data set with IL1β and IL6 (early or established disease, particularly in the established (late stage) model) is “dose dependent reduction”. In addition, the “reducing IL1B and IL6” value in the data set on IL1β and IL6 (i.p. 2 mg/kg, developing stage) was “most efficacious”.
